# System: Bone marrow derived dendritic cells (BMDC)
# Assay: Measurement of proinflammatory cytokines with cytometric bead assay in BMDC
# Format: cell-based, C57BL/6 mice
# Details: BMDC stimulated with 30 μM of compound for 3 days; supernatant
# Experimental: Measurement of Proimflammatory Cytokines with Cytometric Bead Assay:
# Bone marrow derived dendritic cells (BMDC) were generated by isolating a single cell suspension of marrow from the femur of C57BL/6 mice (6-8 weeks of age). Red blood cells were lysed with 0.83% NH4Cl, 0.1% KHCO3 and […] cells were seeded in each of well of a 6 well plate in complete RPMI media (Invitrogen, Grand Island, N.Y.), supplemented with mouse 20 ng/ml Granulocyte-Macrophage Colony Stimulating Factor (PeproTech, Rocky Hill, N.J.). After 6 days after culture, BMDC were stimulated with 30 μM of compound for 3 days. 25 μL of supernatant was then removed and assayed for TNFα, IL-12p40, IL-1β and IL-10 using a flow cytometric bead array according to the manufacturers' instructions (BD Bioscience, San Jose, Calif.). Controls were performed using the addition of media and carrier with no drug. Flow cytometry was performed on a FACS canto-II (BD Bioscience) and data were analyzed using Flowjo software (Tree Star, Inc. Ashland, Oreg.).
SMILES,IL-1b,IL-10,IL-12/23p40,TNF
CCCCc1nc2c(N)nc3cc(NS(=O)(=O)c4ccccc4)ccc3c2n1CC(C)O (centres unmarked) [Compound 543],128 ± 13 pg/mL,151 ± 24 pg/mL,57 ± 8 pg/mL,725 ± 77 pg/mL
"CCCCc1nc2c(N)nc3cc(S(=O)(=O)c4ccccc4)ccc3c2n1CC(C)O (centres unmarked) [Compound 548, 4-amino-2-butyl-1-(2-hydroxypropyl)-7-benzenesulphonyl-1H-imidazo[4,5-c]quinoline]",19 ± 2 pg/mL,29 ± 2 pg/mL,176 ± 25 pg/mL,1456 ± 111 pg/mL

# Reference: US9884866B2, “Immunomodulators and immunomodulator conjugates” (REGENTS OF THE UNIVERSITY OF MINNESOTA, priority 2014, dated 2018)
